In US20210317102A1, “INHIBITORS OF INTEGRATED STRESS RESPONSE PATHWAY” (Praxis Biotech LLC, priority 2019, published 2021):

Key:
[1] = system: Chinese hamster ovary (CHO) cells; assay: Protein synthesis assay (puromycin incorporation, western blot); assay type: cell-based; details: 2 hours, media alone = 100%; for activity at 1 µM: Cricetulus griseus, unstressed CHO cells (without Tg), 1 μM test compound, read-out: % Protein synthesis relative to untreated (1 μM test compound); for % Recovery of protein synthesis (1 μM test compound): stressed CHO cells, 300 nM Tg plus 1 μM test compound, Tg alone = 0%
Method: Chinese hamster ovary (CHO) cells were maintained at 37° C. and 5% CO2 in Dulbecco's Modified Eagle's Media (DMEM) supplemented with 10% fetal bovine serum, 2 mM L-glutamine, 100 U/ml penicillin, and 100 μg/ml streptomycin. After reaching 80% of confluence, cells were detached and seeded on 6 well plates in complete media, allowed to recover overnight and treated for 2 hours with 1 μM of the test compound (to assess protein synthesis levels in unstressed condition), or for 2 hours with 300 nM Tg in the presence of 1 μM of the test compound (to assess the recovery of protein synthesis in a stressed condition). Cells with Tg alone were used as controls.
After the 2 hours treatments, media were replaced by adding 10 μg/ml puromycin (Sigma Aldrich #P8833) in complete media for 30 min. Media were removed and cells were lysed with SDS-PAGE lysis buffer. Lysates were transferred to 1.5 ml tubes and sonicated for 3 min and total protein amount were quantified using BCA Protein Assay Kit (Pierce). Equal amount of protein (30 μg) was loaded on SDS-PAGE gels. Proteins were transferred onto […] PVDF membranes (BioRad) and probed with primary antibodies diluted in Tris-buffered saline supplemented with 0.1% Tween 20 (Merck #S6996184 505) and 3% bovine serum albumin (Rockland #BSA-50).
Puromycin (12D10) (Merck #MABE343) and j-actin (Sigma Aldrich #A5441) antibodies were used as primary antibody. A HRP-conjugated secondary antibody (Rockland) was employed to detect immune-reactive bands using enhanced chemiluminescence (ECL Western Blotting Substrate, Pierce). Quantification of protein bands was done by densitometry using ImageJ software.
Percent increase of protein synthesis in unstressed cells (without Tg treatment) in the presence of media alone or certain test compounds is shown in Table 3. The percentage levels were normalized to the media alone condition, which correspond to 100% protein synthesis.
Percent recovery of protein synthesis in stressed cells (with Tg treatment) due to the test compounds at 1 μM is also shown in Table 3. The levels were normalized to the media alone and Tg alone conditions, which correspond to 100% and 0% respectively.

[2] = system: male Balb/c mice; assay: Fasting-induced muscle atrophy; assay type: in vivo; details: fasted mice, 10 mg/kg oral, compared to vehicle-treated fasted mice
Method: Wild type eight-weeks-old male Balb/c mice obtained from the vivarium Fundación Ciencia & Vida Chile (Santiago, Chile) are used. Mice are housed in independent plastic cages in a room maintained at 25° C. with a 12-h:12-h light:dark cycle.
Twenty-four hours before and during the 2 days of fasted procedures, animals receive oral administration via feeding tubes (15 gauge) of vehicle (50% Polyethylene glycol 400 (Sigma-Aldrich P3265) in distilled water or 10 mg/kg of test compound formulated in vehicle solution.
After 2 days of fasting the animals are sacrificed and muscles are removed from both hindlimbs. Mice with feed and water ad libitum are used as control. […]
Upon collection, muscles are immediately frozen in liquid nitrogen and then stored at −80° C. […] Protein concentration in supernatants is determined using BCA Protein Assay Kit (Pierce). […]
Puromycin (12D10) (Merck Millipore), MuRF-1 (Santa Cruz Biotechnology) and 3-actin (Sigma-Aldrich) antibodies are used as primary antibodies. […] Quantification of protein bands is done by densitometry using ImageJ software.
Expression of the muscle atrophy marker MuRF-1 in quadriceps from fed or fasted mice treated with vehicle or compound 11 is shown in FIG. 1D. The levels were normalized to β-actin expression and fold change was calculated as the level relative to MuRF-1 levels from control mice (Fed) which correspond to 1.

[3] = system: ATF4 expression, HEK293T cells carrying the ATF4 luciferase reporter; assay: ATF4 expression inhibition assay (ATF4 luciferase reporter); assay type: cell-based; details: Homo sapiens, HEK-293T, 100 nM thapsigargin, 3 hours
Method: The ATF4 reporter was prepared by fusing the human full length 5′UTR of ATF4 (NCBI Accession No. BC022088.2) upstream of the firefly luciferase coding sequence lacking the initiator methionine. The fused sequence was cloned into pLenti-EFla-C-Myc-DDK-IRES-Puro cloning vector (Origen #PS100085) using standard methods. Virus production was carried out by using Lenti-X™ Packaging Single Shots Protocol (Clonetech #631276). Viral particles were used to transduce HEK293T cells (ATCC #CRL-3216, ATCC Manassas, Va.), which were subsequently selected with puromycin to generate stable cell line. Cells were maintained at 37° C. and 5% CO2 in DMEM-F12 (Hyclone #SH30023.02) supplemented with 10% heat-inactivated fetal bovine serum (Gibco #16000-044), 2 mM L-glutamine (Gibco #25030-081), 100 U/ml penicillin, and 100 μg/ml streptomycin (Gibco #^15140-122).
HEK293T cells carrying the ATF4 luciferase reporter were plated on 96-well plates (Nunc) at 10,000 cells per well. Cells were treated two days after seeding with 100 nM thapsigargin (Tg) (Sigma-Aldrich #T9033) in the presence of different concentrations of selected compounds ranging from 1 nM to 10 μM. Cells without treatment or cells treated with Tg alone were used as controls. Assay plates containing cells were incubated for 3 hours at 37° C.
Luciferase reactions were performed using Luciferase Assay System (Promega #E1501) as specified by the manufacturer. Luminescence was read with an integration time of 1 s and a gain of 110 using a Cytation-5 multi-mode microplate reader (BioTek). Relative luminescence units were normalized to Tg treatment (0% inhibition) and untreated cells (100% inhibition) and the percentage of ATF4 inhibition was calculated.
Accordingly, inhibition of ATF4 expression as a result of the test compound indicates suppression of the ISR pathway.

SMILES | activity at 1 µM [1] [%] | % Recovery of protein synthesis (1 μM test compound) [1] [%] | Expression of the muscle atrophy marker MuRF-1 in quadriceps [2] | IC50 [3] [nM]
O=C(COc1ccc(Cl)c(F)c1)N[C@H]1CC[C@H](CNC(=O)c2cc3cc(Cl)ccc3o2)CC1 [Compound 11, trans-5-chloro-N-((4-(2-(4-chloro-3-fluorophenoxy)acetamido)cyclohexyl)methyl)benzofuran-2-carboxamide] | 187 | 298.9 | reduction of MuRF-1 expression | 0.82
CCN1C[C@@H](C(=O)N[C@H]2CC[C@H](NC(=O)COc3ccc(Cl)cc3)CC2)Oc2ccc(Cl)cc21 [Compound 89, trans-(S)-6-chloro-N-(4-(2-(4-chlorophenoxy)acetamido)cyclohexyl)-4-ethyl-3,4-dihydro-2H-benzo[b] [1,4]oxazine-2-carboxamide] | 134 | 21.5 |  | < 1000
COc1cc(Cl)ccc1OCC(=O)N[C@H]1CC[C@H](NC(=O)COc2ccc(Cl)cc2)CC1 [Compound 90, trans-2-(4-chloro-2-methoxyphenoxy)-N-(4-(2-(4-chlorophenoxy)acetamido)cyclohexyl)acetamide] | 116 |  |  | 61.5
Cc1cc(Cl)ccc1OCC(=O)N[C@H]1CC[C@H](NC(=O)COc2ccc(Cl)cc2)CC1 [Compound 91, trans-2-(4-chloro-2-methylphenoxy)-N-(4-(2-(4-chlorophenoxy)acetamido)cyclohexyl)acetamide] | 94.8 |  |  | 28.7
NC(=O)c1cc(Cl)ccc1OCC(=O)N[C@H]1CC[C@H](NC(=O)COc2ccc(Cl)cc2)CC1 [Compound 92] | 79.7 |  |  | 52.2
O=C(NC[C@H]1CC[C@H](NC(=O)COc2ccc(Cl)cc2)CC1)Nc1ccc(Cl)cc1 [Compound 93, trans-2-(4-chlorophenoxy)-N-(4-((3-(4-chlorophenyl)ureido)methyl)cyclohexyl)acetamide] | 88 | 69.1 |  | 3.88
O=C(COc1ccc(Cl)cc1)N[C@H]1CC[C@H](NC(=O)C2CNc3ccc(Cl)cc3O2)CC1 (stereo partly drawn) [Compound 94, trans-7-chloro-N-(4-(2-(4-chlorophenoxy)acetamido)cyclohexyl)-3,4-dihydro-2H-benzo[b] [1,4]oxazine-2-carboxamide] | 103 | 58.4 |  | 35.8
O=C(COc1ccc(Cl)c(F)c1)NN1CCC(CNC(=O)c2cc3cc(Cl)ccc3o2)CC1 [Compound 95, 5-chloro-N-((1-(2-(4-chloro-3-fluorophenoxy)acetamido)piperidin-4-yl)methyl)benzofuran-2-carboxamide] | 191 | 133.4 |  | 2.9
O=C(NN1CCC(CNC(=O)c2cc3cc(Cl)ccc3o2)CC1)c1ccc2cc(Cl)ccc2n1 [Compound 96, 6-chloro-N-(4-((5-chlorobenzofuran-2-carboxamido)methyl)piperidin-1-yl)quinoline-2-carboxamide] | 258 |  |  | 1.05
O=C(NCC1CCN(NC(=O)c2cc3cc(Cl)ccc3o2)CC1)c1cc2cc(Cl)ccc2o1 [Compound 97, 5-chloro-N-(4-((5-chlorobenzofuran-2-carboxamido)methyl)piperidin-1-yl)benzofuran-2-carboxamide] | 211 | 249.6 |  | 0.59
O=C(COc1ccc(Cl)c(F)c1)NN1CCC(CNC(=O)c2ccc(Cl)cn2)CC1 [Compound 98, 5-chloro-N-((1-(2-(4-chloro-3-fluorophenoxy)acetamido)piperidin-4-yl)methyl)picolinamide] | -24.9 | 124.5 |  | 30.4
O=C(COc1ccc(Cl)cc1)NN1CCC(CNC(=O)Nc2ccc(Cl)cc2)CC1 [Compound 99, 2-(4-chlorophenoxy)-N-(4-((3-(4-chlorophenyl)ureido)methyl)piperidin-1-yl)acetamide] | -42 | 122.3 |  | 14.5
